Results as given in patent US7699995B2, “Water treatment method” (priority 2006, dated 2010).

Tests used:
[1] = test system: Pseudomonas pseudoalcaligenes #15; experiment: MIC at pH 7.1 or pH 9.0, half strength TSB; type: cell-based; conditions: three days
Experimental: (§1) Minimum inhibitory concentration (MIC) studies were conducted to determine the lowest level of biocide required to inhibit growth of bacteria and fungi. Tests were conducted in 96-well microtiter plates. Biocides were added to growth media in the plates and serially diluted to obtain a range of concentrations. Tests were conducted in one-half strength trypticase soy broth (TSB; adjusted to pH 7.1 or pH 9.0). Bacteria and fungi were added to samples at 10^6 colony forming units per ml and incubated at 30° C. for three days. MIC values were determined visually on a growth no-growth basis.

Rhodotorula rubra #156 = experiment: MIC at pH 7.1 or pH 9.0, half strength TSB; type: cell-based; conditions: three days
Experimental: as §1

Streptomyces sp. #130 = experiment: MIC at pH 7.1 or pH 9.0, half strength TSB; type: cell-based; conditions: three days
Experimental: as §1

Pseudomonas diminuta #99 = experiment: MIC at pH 7.1 or pH 9.0, half strength TSB; type: cell-based; conditions: three days
Experimental: as §1

Alcaligenes faecalis #93 = experiment: MIC at pH 7.1 or pH 9.0, half strength TSB; type: cell-based; conditions: three days
Experimental: as §1

[2] = test system: Pseudomonas aeruginosa #13; experiment: MIC at pH 7.1 or pH 9.0, half strength TSB; type: cell-based; conditions: three days
Experimental: as §1

Aspergillus niger #128 = experiment: MIC at pH 7.1 or pH 9.0, half strength TSB; type: cell-based; conditions: three days
Experimental: as §1

Aspergillus sp. #120 = experiment: MIC at pH 7.1 or pH 9.0, half strength TSB; type: cell-based; conditions: three days
Experimental: as §1

[3] = test system: Alcaligenes xylosoxydans #95; experiment: MIC at pH 7.1 or pH 9.0, half strength TSB; type: cell-based; conditions: three days
Experimental: as §1

[4] = Stability in pH 9 buffer solution at 70° C. (HPLC)
Experimental: pH 9 buffer containing 0.069 M boric acid, 0.017 M citric acid, 0.066 M sodium phosphate was prepared in distilled water. Biocide was dosed into the pH 9 buffer solution and stored at 70° C. in a heat block. The samples were examined for active ingredient concentration at the time points after 5 hours, and 1, 3, 7, 23, 30, 35 and 56 days. Initial biocide doses were 166 ppm MI, 199 ppm BIT and 150 ppm BNPD.
The samples were evaluated for active ingredient concentration via High Pressure Liquid Chromatography. Samples were taken from the heating blocks and allowed to cool to room temperature for 30 minutes. The samples were then diluted 1:20 in deionized water by adding 9.5 ml of deionized water to 0.5 grams of the samples in a 25 ml glass sample vial. The samples were mixed for 15 seconds and transferred to HPLC sample vials for analysis.

[5] = test system: natural, resident populations of Mycobacterium; experiment: Eradication of mycobacteria in naturally contaminated in-use metalworking fluids; type: cell-based; conditions: for No. of Fluids with ≧99% Kill (2-log reduction): of six fluids, 48 hours
Experimental: A comparative study was conducted evaluating six metalworking fluid biocides versus natural, resident populations of Mycobacterium from six in-use metalworking fluids. CMIT/MIT, CMIT/MIT/MCC, MIT, BIT, triazine, and PCMC microbicides were tested under controlled laboratory conditions to determine their efficacy at the maximum manufacturer's recommended dose rate (Table 2). The metalworking fluids were known to contain high levels of mycobacteria prior to dosing with biocides. Samples were then dosed with biocides, incubated with agitation at room temperature and viable mycobacteria counts determined after 48 hours by plating onto Middlebrook 7H10 medium, with Tween 80, glycerin, cyclohexamide, chloramphenicol, and gentamycin to suppress the growth of unwanted microorganisms.
The six metalworking fluid samples containing mycobacteria study from Example 7, were also tested using the same biocides with dosing at 50% of the maximum manufacturer's recommended rate (Table 2) under the same conditions. These metalworking fluids were known to contain high levels of mycobacteria prior to dosing with biocides. Samples were then dosed with biocides, incubated with agitation at room temperature and viable mycobacteria counts determined after 48 hours by plating onto Middlebrook 7H10 medium, with Tween 80, glycerin, cyclohexamide, chloramphenicol, and gentamycin to suppress the growth of unwanted microorganisms.

[6] = Stability with oxidizing and reducing agents at pH 7 and pH 9 (HPLC); type: physicochemical
Experimental: Oxidizing agents (2 mM) included hydrogen peroxide (H2O2; 68 ppm), t-butyl hydrogen peroxide (t-BHP; 180 ppm), and potassium persulfate (K2O8S2; 540 ppm). Reducing agents (2 mM) included iso-ascorbic acid (IAA; 352 ppm) and sodium bisulfite (NaHSO3; 208 ppm). Biocides were tested at 1 mM concentrations, representing 115 ppm MI and […].
The pH 7.0 buffer contained 0.00426% monopotassium phosphate plus 0.019% magnesium chloride hexahydrate. The pH 9.0 buffer contained 0.0046 M hydrochloric acid plus 0.013 M borax. Stock solutions of the redox agents were prepared and added to aliquots of each buffer to give 2 mM concentrations. The biocides were then added to give 1 mM concentrations. The samples were stored at 25° C. and analyzed for biocide level by HPLC at 0, 2 and 8 days.

[7] = K-persulfate 2 mM, pH 7, 25° C.
[8] = K-persulfate 2 mM, pH 9, 25° C.
[9] = Na bisulfite 2 mM, pH 7, 25° C.
[10] = Na bisulfite 2 mM, pH 9, 25° C.

O=c1[nH]sc2ccccc12 [BIT, 1,2-benzisothiazolin-3-one, reference compound]
Minimum Inhibitory Concentration ([1]; pH 7.1, 30° C.): 12.5 ppm | Minimum Inhibitory Concentration ([1]; pH 9.0, 30° C.): 25 ppm | Minimum Inhibitory Concentration (Rhodotorula rubra #156; pH 7.1, 30° C.): <6.3 ppm | Minimum Inhibitory Concentration (Rhodotorula rubra #156; pH 9.0, 30° C.): 100 ppm | Minimum Inhibitory Concentration (Streptomyces sp. #130; pH 7.1, 30° C.): <1.6 ppm | Minimum Inhibitory Concentration (Streptomyces sp. #130; pH 9.0, 30° C.): 3.2 ppm | Minimum Inhibitory Concentration (Pseudomonas diminuta #99; pH 7.1, 30° C.): 3.2 ppm | Minimum Inhibitory Concentration (Pseudomonas diminuta #99; pH 9.0, 30° C.): 12.5 ppm | Minimum Inhibitory Concentration (Alcaligenes faecalis #93; pH 7.1, 30° C.): <1.6 ppm | Minimum Inhibitory Concentration (Alcaligenes faecalis #93; pH 9.0, 30° C.): 6.3 ppm | Minimum Inhibitory Concentration ([2]; pH 7.1, 30° C.): 50 ppm | Minimum Inhibitory Concentration ([2]; pH 9.0, 30° C.): 200 ppm | Minimum Inhibitory Concentration (Aspergillus niger #128; pH 7.1, 30° C.): 50 ppm | Minimum Inhibitory Concentration (Aspergillus niger #128; pH 9.0, 30° C.): 200 ppm | Minimum Inhibitory Concentration (Aspergillus sp. #120; pH 7.1, 30° C.): 50 ppm | Minimum Inhibitory Concentration (Aspergillus sp. #120; pH 9.0, 30° C.): 400 ppm | Minimum Inhibitory Concentration ([3]; pH 7.1, 30° C.): 6.3 ppm | Minimum Inhibitory Concentration ([3]; pH 9.0, 30° C.): 25 ppm | Percent Remaining after: 5 hr ([4]; 5 hr): 98% | Percent Remaining after: 1 day ([4]; 1 day): 97% | Percent Remaining after: 3 day ([4]; 3 day): 94% | Percent Remaining after: 7 day ([4]; 7 day): 92% | Percent Remaining after: 23 day ([4]; 23 day): 86% | Percent Remaining after: 30 day ([4]; 30 day): 71% | Percent Remaining after: 35 day ([4]; 35 day): 63% | Percent Remaining after: 56 day ([4]; 56 day): 68% | loss of active ingredient ([4]; day 56): 32% | Percent Remaining after: 0 ([4]; time 0): 100% | Log Reduction in Mycobacterial Counts versus Control (no biocide) ([5]; Fluid 1, 48 hours, 50% of recommended maximum dose): 0.00 log | Log Reduction in Mycobacterial Counts versus Control (no biocide) ([5]; Fluid 1, 48 hours, 100% of recommended maximum dose): 0.00 log | Log Reduction in Mycobacterial Counts versus Control (no biocide) ([5]; Fluid 2, 48 hours, 50% of recommended maximum dose): 0.00 log | Log Reduction in Mycobacterial Counts versus Control (no biocide) ([5]; Fluid 2, 48 hours, 100% of recommended maximum dose): 0.00 log | Log Reduction in Mycobacterial Counts versus Control (no biocide) ([5]; Fluid 3, 48 hours, 50% of recommended maximum dose): 0.00 log | Log Reduction in Mycobacterial Counts versus Control (no biocide) ([5]; Fluid 3, 48 hours, 100% of recommended maximum dose): 0.60 log | Log Reduction in Mycobacterial Counts versus Control (no biocide) ([5]; Fluid 4, 48 hours, 50% of recommended maximum dose): 0.00 log | Log Reduction in Mycobacterial Counts versus Control (no biocide) ([5]; Fluid 4, 48 hours, 100% of recommended maximum dose): 0.00 log | Log Reduction in Mycobacterial Counts versus Control (no biocide) ([5]; Fluid 5, 48 hours, 50% of recommended maximum dose): 0.00 log | Log Reduction in Mycobacterial Counts versus Control (no biocide) ([5]; Fluid 5, 48 hours, 100% of recommended maximum dose): 0.06 log | Log Reduction in Mycobacterial Counts versus Control (no biocide) ([5]; Fluid 6, 48 hours, 50% of recommended maximum dose): 0.00 log | Log Reduction in Mycobacterial Counts versus Control (no biocide) ([5]; Fluid 6, 48 hours, 100% of recommended maximum dose): 0.00 log | No. of Fluids with ≧99% Kill (2-log reduction) ([5]; 50% of recommended maximum dose): 0 | No. of Fluids with ≧99% Kill (2-log reduction) ([5]; 100% of recommended maximum dose): 0 | % Remaining after 2 Days ([6]; H2O2 2 mM, pH 7, 25° C.): 39% | % Remaining after 8 Days ([6]; H2O2 2 mM, pH 7, 25° C.): 15% | % Remaining after 2 Days ([6]; H2O2 2 mM, pH 9, 25° C.): 8% | % Remaining after 8 Days ([6]; H2O2 2 mM, pH 9, 25° C.): 0% | % Remaining after 2 Days ([6]; IAA 2 mM, pH 7, 25° C.): 89% | % Remaining after 8 Days ([6]; IAA 2 mM, pH 7, 25° C.): 86% | % Remaining after 2 Days ([6]; IAA 2 mM, pH 9, 25° C.): 77% | % Remaining after 8 Days ([6]; IAA 2 mM, pH 9, 25° C.): 75% | % Remaining after 2 Days [6, 7]: 0% | % Remaining after 8 Days [6, 7]: 0% | % Remaining after 2 Days [6, 8]: 0% | % Remaining after 8 Days [6, 8]: 0% | % Remaining after 2 Days [6, 9]: 38% | % Remaining after 8 Days [6, 9]: 28% | % Remaining after 2 Days [6, 10]: 82% | % Remaining after 8 Days [6, 10]: 77% | % Remaining after 2 Days ([6]; no redox agent, pH 7, 25° C.): 100% | % Remaining after 8 Days ([6]; no redox agent, pH 7, 25° C.): 100% | % Remaining after 2 Days ([6]; no redox agent, pH 9, 25° C.): 100% | % Remaining after 8 Days ([6]; no redox agent, pH 9, 25° C.): 100% | % Remaining after 2 Days ([6]; t-BHP 2 mM, pH 7, 25° C.): 43% | % Remaining after 8 Days ([6]; t-BHP 2 mM, pH 7, 25° C.): 8% | % Remaining after 2 Days ([6]; t-BHP 2 mM, pH 9, 25° C.): 38% | % Remaining after 8 Days ([6]; t-BHP 2 mM, pH 9, 25° C.): 6%
